Measured values taken from PubChem BioAssay (NCI).
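Values below derive from 48-hour exposures of cells grown in 96-well plates, with endpoints linearly interpolated between the two concentrations bracketing the appropriate inhibition level. TGI marks complete inhibition of growth.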

Key:
Experiment in all cases: NCI anticancer screen, dose series, 48 h
786-0 renal = tested on: 786-0 renal
EKVX NSCLC = tested on: EKVX NSCLC
HCT-116 colon = tested on: HCT-116 colon
HCT-15 colon = tested on: HCT-15 colon
HOP-62 NSCLC = tested on: HOP-62 NSCLC
IGROV1 ovarian = tested on: IGROV1 ovarian
LOX IMVI melanoma = tested on: LOX IMVI melanoma
MALME-3M melanoma = tested on: MALME-3M melanoma
MCF7 breast = tested on: MCF7 breast
MDA-MB-231 breast = tested on: MDA-MB-231 breast
MDA-N = tested on: MDA-N
NCI-H522 lung = tested on: NCI-H522 lung
NCI/ADR-RES ovarian = tested on: NCI/ADR-RES ovarian
OVCAR-8 ovarian = tested on: OVCAR-8 ovarian
SF-268 CNS = tested on: SF-268 CNS
SF-539 CNS = tested on: SF-539 CNS
T-47D breast = tested on: T-47D breast
U251 CNS = tested on: U251 CNS
UACC-257 melanoma = tested on: UACC-257 melanoma
UACC-62 melanoma = tested on: UACC-62 melanoma

SMILES | TGI (786-0 renal) [µM] | TGI (EKVX NSCLC) [µM] | TGI (HCT-116 colon) [µM] | TGI (HCT-15 colon) [µM] | TGI (HOP-62 NSCLC) [µM] | TGI (IGROV1 ovarian) [µM] | TGI (LOX IMVI melanoma) [µM] | TGI (MALME-3M melanoma) [µM] | TGI (MCF7 breast) [µM] | TGI (MDA-MB-231 breast) [µM] | TGI (MDA-N) [µM] | TGI (NCI-H522 lung) [µM] | TGI (NCI/ADR-RES ovarian) [µM] | TGI (OVCAR-8 ovarian) [µM] | TGI (SF-268 CNS) [µM] | TGI (SF-539 CNS) [µM] | TGI (T-47D breast) [µM] | TGI (U251 CNS) [µM] | TGI (UACC-257 melanoma) [µM] | TGI (UACC-62 melanoma) [µM]
S=C1Cc2c(-c3ccc(Cl)cc3)cc(-c3ccccc3)nc2-c2ccccc2N1 | 21.8 | 54.9 | 28.8 | > 100 | 24.1 | 14 | 35.2 | 35.9 | > 100 | 23.8 | 30.4 | 40.2 | 48.6 | 8.04 | 34.6 | 16.2 | > 100 | > 100 | 36.1 | 41.3
Cc1ncc([N+](=O)[O-])n1CCN(C)C(=O)CCCn1ccnc1[N+](=O)[O-] | > 100 | > 100 | > 100 | > 100 | > 100 | > 100 | > 100 | > 100 | > 100 | > 100 | > 100 | > 100 | > 100 | > 100 | > 100 | > 100 | > 100 | > 100 | > 100 | > 100
O=S(=O)(O)CCCC1S(=O)(=O)OCCOS1(=O)=O | > 100 | > 100 | > 100 | > 100 | > 100 | > 100 | > 100 | > 100 | > 100 | > 100 | > 100 | > 100 | > 100 | > 100 | > 100 | > 100 | > 100 | > 100 | > 100 | > 100
N#CC(c1ccnc(Cl)n1)c1nc2ccccc2s1 (stereo not given) | 16.1 | > 74.6 | 9.38 | 14.8 | 56.8 | > 53.2 | > 33.9 | > 26.5 | 40.6 | 12.3 | 12.9 | 11.1 | 19.7 | > 41.2 | > 63.6 | 15.1 | 22.4 | 13.3 | 41.2 | 15.8
O=c1[nH]c2ccc(Cl)cc2c2oc(-c3ccccc3)nc12 | 30 | 89.8 | 32.8 | > 100 | 43.6 | > 100 | > 100 | 78 | > 100 | 43.4 | > 100 | 32.3 | 86.6 | 24.8 | > 100 | > 100 | 50.4 | 36.8 | > 100 | > 100
C/C(=C\c1ccccc1)C(=O)NCc1ccc(C(=O)NCCC(C)C)cc1 | > 100 | > 100 | > 100 | > 100 | 48 | > 100 | > 100 | > 100 | > 100 | > 100 | > 100 | > 100 | > 100 | > 100 | > 100 | > 100 | > 100 | > 100 | > 100 | > 100
O=Cc1c2ccccc2n2ccc3c4ccccc4[nH]c3c12 | > 10 | > 10 | > 10 | > 10 | > 10 | > 10 | > 10 | > 10 | > 10 | > 10 | > 10 | > 10 | > 10 | > 10 | > 10 | > 10 | > 10 | > 10 | > 10 | > 10
COC(=O)CC1C(COC(C)=O)OC(n2cc(C)c(=O)[nH]c2=O)C1OC(C)=O (stereo not given) | > 100 | > 100 | > 100 | > 100 | > 100 | > 100 | > 100 | > 100 | > 100 | > 100 | > 100 | > 100 | > 100 | > 100 | > 100 | > 100 | > 100 | > 100 | > 100 | > 100
COc1cc(-c2cc(=O)c3c(OC)c(OC)c(OC)cc3o2)c(OC)c(OC)c1OC | > 75 | > 75 | > 75 | > 75 | > 75 | > 75 | > 75 | > 75 | > 75 | > 75 | > 75 | > 75 | > 75 | > 75 | > 75 | > 75 | > 75 | > 75 | > 75 | > 75
O=C1CCCC2C(O)CCC[C@H]12 (stereo not given in full) | > 100 | > 100 | > 100 | > 100 | > 100 | > 100 | > 100 | > 100 | > 100 | > 100 | > 100 | > 100 | > 100 | > 100 | > 100 | > 100 | > 100 | > 100 | > 100 | > 100
Cc1cc(NS(=O)(=O)c2ccc(NC(=O)c3ccc4[nH]c5ccccc5c(=O)c4c3)cc2)no1 | > 100 | > 100 | > 100 | > 100 | > 100 | > 100 | > 100 | > 100 | > 100 | > 100 | > 100 | > 100 | > 100 | > 100 | > 100 | > 100 | > 100 | > 100 | > 100 | > 100
COc1ccc(NC(=O)CC(=O)N2N=C(c3ccccc3)C(N=Nc3ccc(S(=O)(=O)CCOS(=O)(=O)O)cc3)C2=O)cc1 (stereo not given) | > 100 | > 100 | > 100 | > 100 | > 100 | > 100 | > 100 | > 100 | > 100 | > 100 | > 100 | > 100 | > 100 | > 100 | > 100 | > 100 | > 100 | > 100 | > 100 | > 100
Cc1ccc(Cc2n[nH]c(=O)n2/N=C\CC/C=N\n2c(Cc3ccc(C)cc3)n[nH]c2=O)cc1 | 41 | > 100 | > 100 | > 100 | 24.6 | > 100 | > 100 | > 100 | > 100 | > 100 | > 100 | > 100 | 49.9 | 39.9 | 50.9 | 24.9 | > 100 | 53.7 | > 100 | > 100
CC1=NOC2(C1)C(=O)Nc1ccccc12 (stereo not given) | > 100 | > 100 | > 100 | > 100 | > 100 | > 100 | > 100 | > 100 | > 100 | > 100 | > 100 | > 100 | > 100 | > 100 | > 100 | > 100 | > 100 | > 100 | > 100 | > 100
O=c1[nH]cnc2c1sc1nc3ccccc3n12 | > 100 | > 100 | > 100 | > 100 | > 100 | > 100 | > 100 | > 100 | > 100 | > 100 | > 100 | > 100 | > 100 | > 100 | > 100 | > 100 | > 100 | > 100 | > 100 | > 100
O=C(c1ccco1)N(Cc1ccco1)C(=S)Nc1ccccc1 | 22.7 | > 96.5 | 30.7 | 36.2 | > 100 | 42.2 | 27.1 | 44.2 | 49 | 41.1 | 38.1 | 37.7 | 55.3 | 59.7 | 85.3 | 15.4 | 54.1 | 91 | 57.6 | 37.1
